The values that follow come from article PMC6801514, “Structural and Functional Characterization of Three Novel Fungal Amylases with Enhanced Stability and pH Tolerance” (International Journal of Molecular Sciences, 2019).

This assay has as its target T1, CfAM (Cordyceps farinosa, UniProt A0A5S8WFA8).
T1 construct: A, B and C domains (native enzyme lacks CBM20); secreted from Aspergillus oryzae MT3568, mature about 48 kDa, no tag told; two monomers in the asymmetric unit
T1 sequence (A0A5S8WFA8 19-460): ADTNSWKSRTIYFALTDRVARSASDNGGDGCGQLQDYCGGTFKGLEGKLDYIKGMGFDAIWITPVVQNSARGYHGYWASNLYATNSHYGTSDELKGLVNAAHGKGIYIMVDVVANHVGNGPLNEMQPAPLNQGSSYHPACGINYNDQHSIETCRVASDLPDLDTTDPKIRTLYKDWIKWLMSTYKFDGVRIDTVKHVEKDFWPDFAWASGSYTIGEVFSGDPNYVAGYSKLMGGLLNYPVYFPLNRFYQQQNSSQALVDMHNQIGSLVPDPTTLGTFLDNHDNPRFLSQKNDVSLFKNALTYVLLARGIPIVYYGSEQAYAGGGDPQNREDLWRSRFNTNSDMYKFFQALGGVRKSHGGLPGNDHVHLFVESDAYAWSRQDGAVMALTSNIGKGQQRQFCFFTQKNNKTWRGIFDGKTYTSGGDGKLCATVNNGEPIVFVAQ
Nature of the assay: X-ray crystallography, […] Å. The note with it: co-crystallised with 40 mM acarbose, 12% PEG 3350, 0.2 M NaNO3, CAPS pH 11.0; active-site cleft, subsites -4 to +3; ligand formed from acarbose in crystallo crystal (acarbose added, no maltose additio). It is filed as binding.

Regarding `OC[C@H]1O[C@H](O[C@H]2[C@H](O)[C@@H](O)C(O)O[C@@H]2CO)[C@H](O)[C@@H](O)[C@@H]1O` (stereo partly shown) [maltose], the “X-ray crystallography, 1.35 Å” value was “a secondary binding site in domain C was identified and modelled as maltose”.
